Source: ChEMBL document CHEMBL4507265 (2021)

Columns and labels:
[1] = biological target: Calcium/calmodulin-dependent protein kinase type II subunit gamma (Homo sapiens) (UniProt Q13555); conditions: Compound concentration 1000.0 nM
[2] = biological target: Ephrin type-A receptor 5 (Homo sapiens) (UniProt P54756); conditions: Compound concentration 1000.0 nM
[3] = biological target: T1, 5-hydroxytryptamine receptor 1A (Homo sapiens) (UniProt P08908); conditions: Compound concentration 10.0 uM
T1 sequence (whole entry): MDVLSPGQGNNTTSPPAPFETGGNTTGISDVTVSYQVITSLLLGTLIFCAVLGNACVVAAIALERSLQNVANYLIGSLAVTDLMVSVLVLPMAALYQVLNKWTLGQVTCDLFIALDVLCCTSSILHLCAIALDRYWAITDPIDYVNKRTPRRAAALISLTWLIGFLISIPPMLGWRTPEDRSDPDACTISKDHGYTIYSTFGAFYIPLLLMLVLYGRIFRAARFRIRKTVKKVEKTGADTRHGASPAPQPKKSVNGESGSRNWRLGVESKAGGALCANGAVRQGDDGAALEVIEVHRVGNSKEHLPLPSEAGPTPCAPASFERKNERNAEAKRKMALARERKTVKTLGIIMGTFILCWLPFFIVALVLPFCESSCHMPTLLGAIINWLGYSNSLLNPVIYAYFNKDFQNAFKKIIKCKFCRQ

[4] = biological target: Beta-3 adrenergic receptor (Homo sapiens) (UniProt P13945); conditions: Compound concentration 10.0 uM
Sequence of Beta-3 adrenergic receptor (Homo sapiens) (P13945 whole entry, looked up): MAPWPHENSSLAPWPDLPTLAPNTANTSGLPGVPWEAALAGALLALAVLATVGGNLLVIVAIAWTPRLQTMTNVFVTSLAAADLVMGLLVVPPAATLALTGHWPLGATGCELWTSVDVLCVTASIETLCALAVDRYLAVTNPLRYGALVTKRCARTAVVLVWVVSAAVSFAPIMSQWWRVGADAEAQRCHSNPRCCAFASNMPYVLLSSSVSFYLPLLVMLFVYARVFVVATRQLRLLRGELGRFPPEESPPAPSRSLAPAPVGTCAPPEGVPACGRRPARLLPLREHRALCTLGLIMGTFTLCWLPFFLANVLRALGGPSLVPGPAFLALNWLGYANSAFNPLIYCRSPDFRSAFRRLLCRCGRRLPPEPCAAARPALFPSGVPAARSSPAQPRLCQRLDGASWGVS

[5] = biological target: Homeodomain-interacting protein kinase 4 (Homo sapiens) (UniProt Q8NE63); conditions: Compound concentration 1000.0 nM
[6] = biological target: MAP kinase-activated protein kinase 5 (Homo sapiens) (UniProt Q8IW41); conditions: Compound concentration 1000.0 nM
[7] = biological target: Receptor-interacting serine/threonine-protein kinase 4 (Homo sapiens) (UniProt P57078); conditions: Compound concentration 1000.0 nM
Sequence of Receptor-interacting serine/threonine-protein kinase 4 (Homo sapiens) (P57078 whole entry): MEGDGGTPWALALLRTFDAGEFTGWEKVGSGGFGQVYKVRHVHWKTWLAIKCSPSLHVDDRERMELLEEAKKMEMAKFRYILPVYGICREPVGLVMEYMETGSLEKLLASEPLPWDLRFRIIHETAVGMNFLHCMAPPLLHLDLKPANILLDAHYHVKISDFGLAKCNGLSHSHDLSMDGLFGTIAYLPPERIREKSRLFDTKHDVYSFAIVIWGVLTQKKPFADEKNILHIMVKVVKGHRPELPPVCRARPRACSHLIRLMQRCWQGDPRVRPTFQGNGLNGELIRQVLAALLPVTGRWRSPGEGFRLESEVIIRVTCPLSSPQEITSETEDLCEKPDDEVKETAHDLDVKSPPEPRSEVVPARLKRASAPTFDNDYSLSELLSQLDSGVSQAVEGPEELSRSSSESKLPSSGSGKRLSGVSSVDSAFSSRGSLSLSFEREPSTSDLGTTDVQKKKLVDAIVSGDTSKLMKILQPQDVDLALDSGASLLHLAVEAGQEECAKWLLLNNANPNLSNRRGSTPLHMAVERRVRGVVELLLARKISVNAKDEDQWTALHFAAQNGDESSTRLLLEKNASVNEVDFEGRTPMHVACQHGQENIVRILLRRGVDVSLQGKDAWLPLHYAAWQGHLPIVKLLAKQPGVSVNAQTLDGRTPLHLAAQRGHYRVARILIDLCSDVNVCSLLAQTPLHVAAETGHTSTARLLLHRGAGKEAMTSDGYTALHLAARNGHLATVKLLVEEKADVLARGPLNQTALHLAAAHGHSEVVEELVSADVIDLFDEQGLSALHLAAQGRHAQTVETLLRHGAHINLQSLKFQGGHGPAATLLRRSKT

[8] = biological target: Serine/threonine-protein kinase 33 (Homo sapiens) (UniProt Q9BYT3); conditions: Compound concentration 1000.0 nM
Sequence of Serine/threonine-protein kinase 33 (Homo sapiens) (Q9BYT3 whole entry, looked up): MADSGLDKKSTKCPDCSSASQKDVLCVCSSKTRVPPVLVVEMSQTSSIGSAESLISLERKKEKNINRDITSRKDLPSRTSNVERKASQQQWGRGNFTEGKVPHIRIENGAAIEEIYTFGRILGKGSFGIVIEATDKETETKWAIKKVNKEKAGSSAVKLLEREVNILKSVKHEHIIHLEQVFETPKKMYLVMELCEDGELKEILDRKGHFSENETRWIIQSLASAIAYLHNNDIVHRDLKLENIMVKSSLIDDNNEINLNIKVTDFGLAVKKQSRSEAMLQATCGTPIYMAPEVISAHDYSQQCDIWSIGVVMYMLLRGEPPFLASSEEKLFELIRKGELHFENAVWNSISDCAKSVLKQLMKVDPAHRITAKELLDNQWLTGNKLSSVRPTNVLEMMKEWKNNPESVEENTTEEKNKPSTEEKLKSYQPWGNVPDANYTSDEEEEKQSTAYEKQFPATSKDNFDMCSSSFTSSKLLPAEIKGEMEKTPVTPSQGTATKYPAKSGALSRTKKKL

[9] = biological target: Atypical kinase COQ8A, mitochondrial (Homo sapiens) (UniProt Q8NI60); conditions: Compound concentration 1000.0 nM
[10] = system: Mast/stem cell growth factor receptor Kit (Homo sapiens), P10721 [V559D,V654A]; conditions: Compound concentration 1000.0 nM
[11] = biological target: Interleukin-1 receptor-associated kinase 3 (Homo sapiens) (UniProt Q9Y616); conditions: Compound concentration 1000.0 nM
[12] = biological target: 5-hydroxytryptamine receptor 2C (Homo sapiens) (UniProt P28335); conditions: Compound concentration 10.0 uM
[13] = biological target: MAP/microtubule affinity-regulating kinase 3 (Homo sapiens) (UniProt P27448); conditions: Compound concentration 1000.0 nM
[14] = biological target: cAMP-dependent protein kinase catalytic subunit alpha (Homo sapiens) (UniProt P17612); conditions: Compound concentration 1000.0 nM
[15] = biological target: Serine/threonine-protein kinase BRSK2 (Homo sapiens) (UniProt Q8IWQ3); conditions: Compound concentration 1000.0 nM
[16] = biological target: Serine/threonine-protein kinase SIK1 (Homo sapiens) (UniProt P57059); conditions: Compound concentration 1000.0 nM
[17] = biological target: MAP kinase-interacting serine/threonine-protein kinase 2 (Homo sapiens) (UniProt Q9HBH9); conditions: Compound concentration 1000.0 nM
[18] = system: Mast/stem cell growth factor receptor Kit (Homo sapiens), P10721 [A829P]; conditions: Compound concentration 1000.0 nM
[19] = biological target: Inhibitor of nuclear factor kappa-B kinase subunit alpha (Homo sapiens) (UniProt O15111); conditions: Compound concentration 1000.0 nM
[20] = biological target: Serine/threonine-protein kinase Nek11 (Homo sapiens) (UniProt Q8NG66); conditions: Compound concentration 1000.0 nM
Sequence of Serine/threonine-protein kinase Nek11 (Homo sapiens) (Q8NG66 whole entry): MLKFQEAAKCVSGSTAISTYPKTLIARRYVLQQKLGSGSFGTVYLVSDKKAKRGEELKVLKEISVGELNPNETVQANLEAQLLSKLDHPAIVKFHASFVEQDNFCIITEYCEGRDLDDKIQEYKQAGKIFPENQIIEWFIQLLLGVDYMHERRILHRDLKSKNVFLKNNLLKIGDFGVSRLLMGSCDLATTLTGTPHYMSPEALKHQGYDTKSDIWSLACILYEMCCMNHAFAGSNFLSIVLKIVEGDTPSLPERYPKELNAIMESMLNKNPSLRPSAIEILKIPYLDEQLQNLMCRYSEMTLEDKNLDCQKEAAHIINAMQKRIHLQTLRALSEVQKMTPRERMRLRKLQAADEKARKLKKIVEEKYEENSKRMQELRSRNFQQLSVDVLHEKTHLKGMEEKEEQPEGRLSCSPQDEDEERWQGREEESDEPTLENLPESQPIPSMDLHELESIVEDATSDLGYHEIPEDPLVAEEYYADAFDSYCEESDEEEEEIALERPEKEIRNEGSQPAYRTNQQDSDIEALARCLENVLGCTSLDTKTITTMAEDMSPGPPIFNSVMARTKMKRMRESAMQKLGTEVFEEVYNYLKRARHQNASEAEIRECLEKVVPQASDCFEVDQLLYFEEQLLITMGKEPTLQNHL

[21] = biological target: 5'-AMP-activated protein kinase catalytic subunit alpha-2 (Homo sapiens) (UniProt P54646); conditions: Compound concentration 1000.0 nM
[22] = biological target: STE20-like serine/threonine-protein kinase (Homo sapiens) (UniProt Q9H2G2); conditions: Compound concentration 1000.0 nM
[23] = biological target: Mitogen-activated protein kinase kinase kinase kinase 5 (Homo sapiens) (UniProt Q9Y4K4); conditions: Compound concentration 1000.0 nM
[24] = biological target: Fibroblast growth factor receptor 2 (Homo sapiens) (UniProt P21802); conditions: Compound concentration 1000.0 nM
[25] = biological target: Serine/threonine-protein kinase Nek6 (Homo sapiens) (UniProt Q9HC98); conditions: Compound concentration 1000.0 nM
Sequence of Serine/threonine-protein kinase Nek6 (Homo sapiens) (Q9HC98 whole entry): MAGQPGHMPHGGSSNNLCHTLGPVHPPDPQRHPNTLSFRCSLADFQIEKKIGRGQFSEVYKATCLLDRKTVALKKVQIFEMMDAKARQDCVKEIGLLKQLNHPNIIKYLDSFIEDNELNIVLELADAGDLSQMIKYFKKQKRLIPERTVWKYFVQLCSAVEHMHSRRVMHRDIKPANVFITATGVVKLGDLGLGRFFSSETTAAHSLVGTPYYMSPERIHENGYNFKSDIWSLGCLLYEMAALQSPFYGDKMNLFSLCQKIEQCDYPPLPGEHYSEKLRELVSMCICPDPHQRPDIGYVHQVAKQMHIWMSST

[26] = biological target: Eukaryotic translation initiation factor 2-alpha kinase 1 (Homo sapiens) (UniProt Q9BQI3); conditions: Compound concentration 1000.0 nM
[27] = biological target: Myosin light chain kinase, smooth muscle (Homo sapiens) (UniProt Q15746); conditions: Compound concentration 1000.0 nM
[28] = biological target: Serine/threonine-protein kinase DCLK2 (Homo sapiens) (UniProt Q8N568); conditions: Compound concentration 1000.0 nM
[29] = biological target: Protein kinase C theta type (Homo sapiens) (UniProt Q04759); conditions: Compound concentration 1000.0 nM
[30] = system: Tyrosine-protein kinase ABL1 (Homo sapiens), P00519 [T315I]; conditions: Compound concentration 1000.0 nM
[31] = biological target: Serine/threonine-protein kinase MRCK beta (Homo sapiens) (UniProt Q9Y5S2); conditions: Compound concentration 1000.0 nM
[32] = biological target: Ephrin type-A receptor 7 (Homo sapiens) (UniProt Q15375); conditions: Compound concentration 1000.0 nM
[33] = biological target: Mitogen-activated protein kinase kinase kinase 6 (Homo sapiens) (UniProt O95382); conditions: Compound concentration 1000.0 nM
Sequence of Mitogen-activated protein kinase kinase kinase 6 (Homo sapiens) (O95382 whole entry): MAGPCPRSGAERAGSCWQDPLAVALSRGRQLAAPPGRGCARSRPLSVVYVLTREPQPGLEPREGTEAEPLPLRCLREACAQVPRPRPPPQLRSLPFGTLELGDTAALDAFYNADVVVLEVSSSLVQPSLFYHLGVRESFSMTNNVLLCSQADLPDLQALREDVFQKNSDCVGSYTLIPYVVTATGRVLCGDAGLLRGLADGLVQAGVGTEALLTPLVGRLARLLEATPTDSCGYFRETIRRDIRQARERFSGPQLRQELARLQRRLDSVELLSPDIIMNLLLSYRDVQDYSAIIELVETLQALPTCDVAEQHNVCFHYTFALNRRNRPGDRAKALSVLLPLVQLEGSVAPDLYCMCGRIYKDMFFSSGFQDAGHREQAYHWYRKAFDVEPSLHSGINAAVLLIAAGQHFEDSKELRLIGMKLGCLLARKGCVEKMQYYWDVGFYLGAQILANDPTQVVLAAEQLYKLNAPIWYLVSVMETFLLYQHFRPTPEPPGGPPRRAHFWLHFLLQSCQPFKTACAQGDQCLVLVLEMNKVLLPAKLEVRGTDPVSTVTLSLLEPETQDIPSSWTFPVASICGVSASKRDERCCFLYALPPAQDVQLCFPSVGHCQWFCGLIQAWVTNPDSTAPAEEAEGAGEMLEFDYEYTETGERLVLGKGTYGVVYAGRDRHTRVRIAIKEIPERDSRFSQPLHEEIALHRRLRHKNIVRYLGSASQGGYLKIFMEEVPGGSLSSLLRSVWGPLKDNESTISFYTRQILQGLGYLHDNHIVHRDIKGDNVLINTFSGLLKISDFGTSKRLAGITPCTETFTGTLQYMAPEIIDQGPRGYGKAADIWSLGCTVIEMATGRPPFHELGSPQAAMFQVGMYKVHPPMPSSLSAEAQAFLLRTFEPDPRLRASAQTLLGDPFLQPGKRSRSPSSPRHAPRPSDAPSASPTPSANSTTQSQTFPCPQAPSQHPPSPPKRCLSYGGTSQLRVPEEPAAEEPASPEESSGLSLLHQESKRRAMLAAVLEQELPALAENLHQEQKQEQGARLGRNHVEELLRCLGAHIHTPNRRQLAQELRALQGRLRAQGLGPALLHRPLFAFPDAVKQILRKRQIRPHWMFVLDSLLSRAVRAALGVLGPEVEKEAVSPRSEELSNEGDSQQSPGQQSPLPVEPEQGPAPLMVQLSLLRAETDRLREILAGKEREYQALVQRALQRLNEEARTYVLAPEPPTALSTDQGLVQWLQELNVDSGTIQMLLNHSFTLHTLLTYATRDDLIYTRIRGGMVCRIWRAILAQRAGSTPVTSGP

[34] = biological target: Casein kinase II subunit alpha' (Homo sapiens) (UniProt P19784); conditions: Compound concentration 1000.0 nM
[35] = biological target: Hormonally up-regulated neu tumor-associated kinase (Homo sapiens) (UniProt P57058); conditions: Compound concentration 1000.0 nM
Sequence of Hormonally up-regulated neu tumor-associated kinase (Homo sapiens) (P57058 whole entry): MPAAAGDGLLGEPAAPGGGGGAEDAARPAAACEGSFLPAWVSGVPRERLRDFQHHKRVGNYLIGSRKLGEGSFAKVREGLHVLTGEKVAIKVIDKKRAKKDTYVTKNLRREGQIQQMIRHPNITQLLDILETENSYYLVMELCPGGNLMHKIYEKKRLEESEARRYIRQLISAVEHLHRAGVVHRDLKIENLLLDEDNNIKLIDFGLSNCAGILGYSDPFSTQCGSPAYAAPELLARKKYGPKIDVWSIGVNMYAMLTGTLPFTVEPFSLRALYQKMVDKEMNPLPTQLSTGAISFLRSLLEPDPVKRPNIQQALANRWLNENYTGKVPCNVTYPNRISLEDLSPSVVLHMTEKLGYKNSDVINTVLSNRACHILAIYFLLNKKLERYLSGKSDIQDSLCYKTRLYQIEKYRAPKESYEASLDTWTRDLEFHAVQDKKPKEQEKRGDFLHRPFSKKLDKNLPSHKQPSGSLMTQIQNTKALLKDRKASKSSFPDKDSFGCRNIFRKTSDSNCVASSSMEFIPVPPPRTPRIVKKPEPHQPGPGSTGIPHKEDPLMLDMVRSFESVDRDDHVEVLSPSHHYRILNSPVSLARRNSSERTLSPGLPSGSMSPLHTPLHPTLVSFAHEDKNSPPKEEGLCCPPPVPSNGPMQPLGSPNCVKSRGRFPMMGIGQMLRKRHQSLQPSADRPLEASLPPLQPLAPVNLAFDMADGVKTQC

[36] = biological target: Serine/threonine-protein kinase BRSK1 (Homo sapiens) (UniProt Q8TDC3); conditions: Compound concentration 1000.0 nM
[37] = biological target: Macrophage colony-stimulating factor 1 receptor (Homo sapiens) (UniProt P07333); conditions: Compound concentration 1000.0 nM
[38] = biological target: Serine/threonine-protein kinase PLK4 (Homo sapiens) (UniProt O00444); conditions: Compound concentration 1000.0 nM
[39] = biological target: Tyrosine-protein kinase Lyn (Homo sapiens) (UniProt P07948); conditions: Compound concentration 1000.0 nM

Compound | residual activity [1] | residual activity [2] | inhibition [3] | inhibition [4] | residual activity [5] | residual activity [6] | residual activity [7] | residual activity [8] | residual activity [9] | residual activity [10] | residual activity [11] | inhibition [12] | residual activity [13] | residual activity [14] | residual activity [15] | residual activity [16] | residual activity [17] | residual activity [18] | residual activity [19] | residual activity [20] | other results
NS(=O)(=O)c1cc(NC(=O)Cc2ccccc2)ccc1Oc1cccc(Cl)c1 [BAY-1797] | 86% | 62% | -1.77% | 46.3% | 100% | 100% | 83% | 100% | 94% | 100% | 87% | 55.4% | 100% | 94% | 91% | 93% | 86% | 74% | 63% | 100% | residual activity [21]: 82%; residual activity [22]: 66%; residual activity [23]: 72%; residual activity [24]: 61%; residual activity [25]: 98%; residual activity [26]: 83%; residual activity [27]: 73%; residual activity [28]: 99%; residual activity [29]: 74%; residual activity [30]: 61%; residual activity [31]: 100%; residual activity [32]: 92%; residual activity [33]: 72%; residual activity [34]: 100%; residual activity [35]: 84%; residual activity [36]: 91%; residual activity [37]: 87%; residual activity [38]: 92%; residual activity [39]: 99%
NS(=O)(=O)c1cc(NC(=O)C2(c3ccccc3Cl)CC2)ccc1Oc1cccc(Cl)c1 [BAY-207] | 93% | 79% | 4.89% | -5.77% | 58% | 89% | 100% | 100% | 100% | 100% | 75% | 19.5% | 92% | 94% | 87% | 71% | 100% | 69% | 100% | 100% | residual activity [21]: 87%; residual activity [22]: 79%; residual activity [23]: 100%; residual activity [24]: 100%; residual activity [25]: 81%; residual activity [26]: 95%; residual activity [27]: 72%; residual activity [28]: 74%; residual activity [29]: 88%; residual activity [30]: 82%; residual activity [31]: 62%; residual activity [32]: 82%; residual activity [33]: 100%; residual activity [34]: 100%; residual activity [35]: 75%; residual activity [36]: 82%; residual activity [37]: 85%; residual activity [38]: 87%; residual activity [39]: 83%
